Test results: patent US10202604B2, “Methods of using microRNA-141” (Stemirna Therapeutics Co., Ltd., priority 2016, dated 2019)
Several values for one entry are separate records, joined by “and”; a condition that tells them apart may be missing. Equal entries are not always repeated.

Tests used:
[1] = tested on: PPC-1 bulk cells or CD44+ DU145 cells; assay: EdU incorporation flow cytometry; assay type: cell-based, human; settings: miR-141-overexpressing cells; 30 nM oligos 48 h, 10 μM EdU 2.5 h
Experimental: EdU (5-ethynyl-2′-deoxyuridine) is a nucleoside analog to thymidine and incorporated into DNA during active DNA synthesis. EdU incorporation assays were performed using Click-iT EdU Flow Cytometer Assays kit (C10418, Invitrogen) per manufacturer's instructions. Briefly, PPC-1 bulk cells or CD44^+ DU145 cells transfected with negative control or miR-141 oligos (30 nM) for 48 h were pulsed with 10 μM EdU for 2.5 h and harvested. After fixation and permeabilization, cells were processed for EdU immunostaining and also labeled with Pacific Blue azide (1:200) and finally analyzed on a flow cytometer.

[2] = tested on: cultured as well as primary patient human prostate cancer cells; assay: Matrigel invasion assay; assay type: cell-based
Experimental: For Boyden Chamber invasion assays, Biocoat Matrigel Invasion Chamber (BD, Franklin Lakes, N.J.) was employed following the manufacturer's instructions. Briefly, 100,000-200,000 of prostate cancer cells after transfection with […]/miR-141 oligos or infection with miR-141 over-expressing lentivirus were seeded into each well. Medium with 20% fetal bovine serum was used in the lower chamber as chemo-attractant. After 20 h, cells were fixed and stained using HEMA stain. Representative images were taken for each membrane and cells were counted. Migration assays were simultaneously performed in control wells using identical protocol with Transwell (Costar; […]) without Matrigel. In some experiments, Du145 cells were plated one day before and treated with 1, 2, and 5 μM of DZNep (3-Deazaneplanocin A) for 96 h after which cells were harvested and used in invasion assays and Western blot.

[3] = tested on: E-Cadherin and ZEB-1 in PC3 and Du145 cells; assay: Western blotting of E-Cadherin and ZEB-1; assay type: cell-based, human; settings: bulk Du145 and PC3 cells; 30 or 60 nM, 48 h
Experimental: (§1) FIGS. 3A-3J show partial suppression of epithelial to mesenchymal transition by miR-141 and CD44 as a direct target of miR-141. FIGS. 3A-3B show qPCR analysis of epithelial to mesenchymal transition markers in bulk (FIG. 3A) or CD44^+ (FIG. 3B) Du145 cells transfected with the miR-141 oligos (30 nM; 48 h). Results were presented as the relative expression levels over the cells transfected with the NC oligos. […] GAPDH was used as control and the relative protein levels after normalizing to GAPDH and NC controls were indicated below each lane. […] Shown below is the actual sequence in the region with the mutated miR-141 binding sequence indicated in grey (below). […] Shown are representative images. […] Du145 cells were co-transfected with NC or miR-141 oligos (30 nM) together with pBabe empty vector or pBabe-CD44 vector. After 48 h, cells were harvested for invasion assays. Bars, mean±SD. *, P<0.05; **, P<0.01.

[4] = tested on: CD44; assay: CD44 mRNA and protein levels in prostate cancer cells; assay type: cell-based, human; settings: bulk Du145 and PC3 cells or CD44+ Du145 cells
Experimental: as §1
Total RNA was extracted using microRNA isolation kit (Life Technologies) according to the manufacturer's instructions. microRNA qPCRs were performed using TaqMan microRNA assays (Life Technologies). qPCR data for microRNAs were normalized to RNU48 whereas qPCR data for mRNAs were normalized to GAPDH.

[5] = tested on: CD44; assay: CD44 levels in endpoint tumors; assay type: in vivo; settings: tumors from miR-141 overexpressing cells vs control tumors
[6] = tested on: Du145 cells; assay: Whole-genome RNA-Seq; assay type: cell-based, human
Experimental: (§2) Du145 and LAPC9 cells were transfected with 30 nM of miR-141 or negative control oligos for 48 h. Total RNA was purified using RNeasy mini kit (Qiagen, Hilden, Germany). The overexpression of miR-141 was validated by qPCR. 100 ng of total RNA samples was then converted to cDNA using a NuGEN Ovation RNA-Seq System v2 according to the manufacturer's protocol (NuGEN, San Carlos, Calif.). NuGEN-amplified double-stranded cDNAs were fragmented into ˜180 base pair (bp) using a Covaris system (Covaris, Woburn, Mass.). Fragmented cDNAs were run on a SPRI-TE library construction system (Beckman Coulter, Fullerton, Calif.), and during the adaptor ligation step, uniquely indexed NEXTflex adapters (Bioo Scientific, Austin, Tex.) were used for each of the samples to allow for multiplexing. Adapter-ligated libraries were enriched by PCR using a KAPA library amplification kit (KAPA Biosystems, Wilmington, Mass.) (1 cycle at 98° C. for 45 seconds; 7 cycles at 98° C. for 15 seconds, 65° C. for 30 seconds, and 72° C. for 30 seconds; 1 cycle at 72° C. for 1 minute), and purified with AMPureXP beads (Beckman Coulter, Pasadena, Calif.). The purified libraries were quantified using a KAPA library quantification kit. The libraries were loaded on cBot (Illumina, San Diego, Calif.) at final concentration of […] to perform cluster generation, followed by 2×76 bp sequencing on HiSeq 2000 (Illumina, San Diego, Calif.).
(§3) Sequencing reads were mapped to reference human genome sequence ([…] [hg19] assembly by TopHat (Version 2.0.6). The number of fragments in each known gene from RefSeq database (downloaded from UCSC Genome Browser on Mar. 9, 2012) was enumerated using htseq-count from HTSeq package (version 0.5.4p9). Genes with less than 10 fragments in all the samples were removed before differential expression analysis. The differential expression between conditions was statistically assessed by R/Bioconductor package edgeR (version 3.0.8). Genes with FDR (false discovery rate) of ≤0.05 and >200 bp were called as differentially expressed.
(§4) For Gene Ontology (GO) analysis, IPA (Ingenuity Pathway Analysis; Qiagen, Valencia, Calif.) and GSEA (Gene Set Enrichment Analysis; Broad Institute) were performed. The standard procedure was followed (www.broadinstitute.org/gsea/doc/GSEAUserGuideFrame.html) as described by GSEA user guide and used curated gene set C2 of the Molecular Signature Database (MSigDB) version 4.0 to compute overlaps between gene set and gene sets in MSigDB. Some of the datasets presented in the text are annotated here.
(§5) The authors' in-house scripts (12) was utilized for sequence alignment and peak calling. The miR-200a CLIP-Seq results containing the binding information were further extracted and merged with Du145 or LAPC9 RNA-Seq data by gene symbol.

[7] = tested on: LAPC9 cells; assay: Whole-genome RNA-Seq; assay type: cell-based, human
Experimental: as §2, §3, §4, §5

[8] = merged with miR-200a CLIP-Seq data

For “miR-141: miR-141 mirVana mimics (Life Technologies); microRNA-141 oligonucleotide may have SEQ ID NO: 1; in some experiments over-expressed by lentiviral vectors (UAACACUGUCUGGUAAAGAUGG; listed as RNA, further chemistry not given here) [miR-141 mirVana mimics (Life Technologies); in some experiments over-expressed by lentiviral vectors]”, which EdU incorporation [1] is on record?
Its EdU incorporation is “reduced”.

And the invasive capabilities [2]?
The invasive capabilities was “significantly inhibited”.

What about the “E-cadherin (CDH1) protein level” value [3] of the same substance?
Its value is “increased”.

What about the ZEB1 protein level [3] of the same substance?
The ZEB1 protein level was “reduced”.

And the “CD44 mRNA level” value [4]?
Its value is “significantly reduced”.

What about the CD44 protein level [4] of the same substance?
Its CD44 protein level is “significantly reduced”.

What about the “CD44 mRNA level in endpoint tumors” value [5] of the same substance?
Its value is “lower levels”.

What about the “CD44 protein level in endpoint tumors” value [5] of the same substance?
Its value is “lower levels”.

And the “TGFB2, ZEB1, MAP2K4, and VIM expression” value [6]?
Its value is “downregulated”.

And the “ZEB2, TWIST2, and SANI2 expression” value [6]?
The value was “inconsistent changes”.

What about the “epithelial markers including E-Cadherin, Claudin family members and cytokeratins (KRT)” value [6] of the same substance?
The value was “strongly induced”.

And the down-regulated genes ([6]; FDR<0.05)?
Its down-regulated genes is 949.

What about the up-regulated genes ([6]; FDR<0.05) of the same substance?
Its up-regulated genes is 1,304.

What about the “transcripts having binding sites to miR-200a/miR-141” value ([6]; RNA-Seq DEGs merged with miR-200a CLIP-Seq data) of the same substance?
Its value is 532.

What about the “down-regulated transcripts having binding sites to miR-200a/miR-141” value [6, 8] of the same substance?
Its value is 263.

What about the “upregulated transcripts having binding sites to miR-200a/miR-141” value [6, 8] of the same substance?
The value was 269.

What about the “TGFB2, ZEB1, MAP2K4, VIM, NYH10, FN1 and many other mesenchymal genes” value [7] of the same substance?
Its value is “downregulated”.

And the “epithelial markers including E-Cadherin, Claudin members and KRTs” value [7]?
Its value is “prominently upregulated”.

And the down-regulated genes ([7]; FDR<0.05)?
Its down-regulated genes is 459.

And the up-regulated genes ([7]; FDR<0.05)?
The up-regulated genes was 265.

What about the “putative direct targets of miR-141 (genes)” value ([7]; RNA-Seq merged with miR-200a CLIP-Seq data) of the same substance?
The value was 157 and ~150.
